Assays:
Parameters in all cases: species or system AML cell lines (8); Primary HTS, single concentration about 10 uM, Cell Titer Glo viability; log10 luminescence, per cent inhibition relative to cycloheximide control
Settings in all cases: 72 h, relative to cycloheximide control, log10 luminescence; inhibitor
CHRF288-11 = tested on: CHRF288-11
CMK = tested on: CMK
CMS = tested on: CMS
M07e = tested on: M07e
ML-2 = tested on: ML-2
MOLM-13 = tested on: MOLM-13
MV4-11 = tested on: MV4-11
U937 = tested on: U937

SMILES	CHRF288-11 %inh (CHRF288-11) [%]	CMK %inh (CMK) [%]	CMS %inh (CMS) [%]	M07e %inh (M07e) [%]	ML-2 %inh (ML-2) [%]	MOLM-13 %inh (MOLM-13) [%]	MV4-11 %inh (MV4-11) [%]	U937 %inh (U937) [%]
Cn1cc(C2=C(c3cn(C)c4cc(C(N)=O)ccc34)C(=O)NC2=O)c2ccccc21 [SJ000581068-1]	59.82	87.67	51.9	58.86	54.4	63.24	76.64	75.21
Cn1cc(C2=C(c3c[nH]c4ccccc34)C(=O)NC2=O)c2ccccc21 [SJ000581069-1]	37	44.1	13.88	40.86	39.66	79.5	15.94	53.14
COc1cccc2c1c(C1=C(c3cn(C)c4ccccc34)C(=O)NC1=O)cn2C [SJ000581070-1]	8.87	10.2	-1.314	5.504	-0.1682	2.978	0.2803	-0.4175
CN=C1NC(=O)/C(=C/c2ccc3ncccc3c2)S1 [SJ000581072-1]	174.6	44.3	9.143	18.48	4.634	28.17	9.718	7.703
O=C1NC(=NCc2ccccc2)S/C1=C\c1ccc2ncccc2c1 [SJ000581073-1]	5.173	48.96	5.2	12.28	2.983	18.77	27.42	3.079
CS(=O)(=O)CCCn1c(=O)c(Oc2ccc(F)cc2F)cc2cnc(NC3CCOCC3)nc21 [SJ000581074-1]	5.377	-0.8153	-2.642	4.622	1.736	-2.241	-0.6859	1.649
O=C1NC(=O)C(c2c[nH]c3ccccc23)=C1c1ccccc1 [SJ000581075-1]	16.2	-2.624	-0.679	3.019	1.922	-2.51	1.744	2.672
Nc1c(C(=O)c2cccc(-c3ccncc3)c2)cnn1-c1ccc(F)cc1F [SJ000581077-1]	21.24	75.1	10.55	29.92	15.89	13.91	3.251	32.29
Cn1cc(C2=C(c3cn(C)c4cc(Cl)ccc34)C(=O)NC2=O)c2ccccc21 [SJ000581078-1]	127	127.5	103.6	100	61.36	85.69	84.42	87.46
Cc1ccc2c(c1)c(C1=C(c3cn(C)c4ccccc34)C(=O)NC1=O)cn2C [SJ000581079-1]	31.79	50.85	12.87	21.17	12.05	61.76	11.84	21.19
Cn1cc(C2=C(c3c4n(c5ccccc35)CCNC4)C(=O)NC2=O)c2ccccc21 [SJ000581080-1]	19.49	60.56	16.83	25.69	12.57	62.95	15.28	18.44
COc1ccc(OC)c(C2=C(c3cn(C)c4ccccc34)C(=O)NC2=O)c1 [SJ000581081-1]	7.567	3.003	0.8246	2.921	-0.4206	-2.282	1.033	-0.9957
COc1ccc2c(C3=C(c4cn(C)c5ccccc45)C(=O)NC3=O)cn(C)c2c1 [SJ000581082-1]	125.3	107.7	102.2	103.9	51.13	81.86	77.51	79.84
O=[N+]([O-])c1ccc2c(c1)C(c1ccccc1Cl)=Nc1cn[nH]c1N2 [SJ000581083-1]	-0.2746	-5.045	-0.274	4.12	-0.08337	-2.48	0.3353	-1.165
Cn1cc(C2=C(c3cn(C)c4c(N)cccc34)C(=O)NC2=O)c2ccccc21 [SJ000581084-1]	31.5	34.34	26.64	30.04	31.97	57.26	35.68	30.59
COC[C@H](N=C1NC(=O)/C(=C/c2ccc3ncccc3c2)S1)c1ccccc1 [SJ000581086-1]	2.677	5.986	4.472	15.62	2.549	-1.579	-0.3199	4.246
Fc1ccc(-c2c(-c3ccncc3)[nH]c3cccnc23)cc1 [SJ000581088-1]	1.888	-0.07997	0.767	3.19	-1.446	-2.723	0.5271	1.73
N#CCn1c(=O)c(Oc2ccc(F)cc2F)cc2cnc(NC3CCOCC3)nc21 [SJ000581089-1]	0.7869	1.27	1.167	5.15	0.2559	79.15	0.2945	0.6532
Nc1c(C(=O)c2cccc(C#CCN3CCCCC3)c2)cnn1-c1ccc(F)cc1 [SJ000581090-1]	2.1	-1.859	8.688	8.075	0.9731	0.3011	1.177	7.38
O=c1[nH]c2nc(NC3CCOCC3)ncc2cc1Oc1ccc(F)cc1F [SJ000581091-1]	2.671	-0.7252	4.57	7.401	-1.12	-2.415	0.8036	1.694
COc1cccc(C2=C(c3cn(C)c4cccc(OC)c34)C(=O)NC2=O)c1 [SJ000581093-1]	15.23	64.38	2.878	15.31	1.141	14.52	0.2916	7.981
Cn1c(=O)c(Sc2ccccc2F)cc2cnc(NC3CCOCC3)nc21 [SJ000581094-1]	5.078	-1.429	-0.09142	79.34	-0.9832	-2.304	1.745	-2.114
Cn1cc(C2=C(c3cn(C)c4c([N+](=O)[O-])cccc34)C(=O)NC2=O)c2ccccc21 [SJ000581096-1]	-0.1815	1.442	-0.5679	3.87	-1.675	-1.995	1.039	-1.424
Cn1cc(C2=C(c3cccnc3)C(=O)NC2=O)c2ccccc21 [SJ000581097-1]	42.59	8.732	3.929	1.519	3.521	6.704	3.908	-1.738

Source: article PMC6522510 (Nature Communications, 2019)
